Reference: PubChem BioAssay (NCI)
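1) Cells in 96-well plates. 2) Compound, 48 h, 5 concentrations. 3) Linear interpolation between surrounding doses. 4) Unreached endpoint = highest concentration. GI50 marks 50% less growth. TGI: concentration producing complete growth inhibition.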

Tests used:
Test in all cases: growth of human tumour cells (NCI), 48 h
SNB-19 CNS = system: SNB-19 CNS
NCI-H23 lung = system: NCI-H23 lung
MOLT-4 leukemia = system: MOLT-4 leukemia
CAKI-1 renal = system: CAKI-1 renal
SK-MEL-28 melanoma = system: SK-MEL-28 melanoma
UACC-257 melanoma = system: UACC-257 melanoma
HL-60(TB) leukemia = system: HL-60(TB) leukemia
ACHN renal = system: ACHN renal
TK-10 renal = system: TK-10 renal
T-47D breast = system: T-47D breast
SF-268 CNS = system: SF-268 CNS
LOX IMVI melanoma = system: LOX IMVI melanoma
EKVX NSCLC = system: EKVX NSCLC
MDA-MB-231 breast = system: MDA-MB-231 breast
SF-539 CNS = system: SF-539 CNS
MCF7 breast = system: MCF7 breast
HS 578T breast = system: HS 578T breast
M14 melanoma = system: M14 melanoma
U251 CNS = system: U251 CNS
A498 renal = system: A498 renal
COLO 205 colon = system: COLO 205 colon
K-562 leukemia = system: K-562 leukemia
OVCAR-4 ovarian = system: OVCAR-4 ovarian
HOP-92 NSCLC = system: HOP-92 NSCLC
NCI-H460 lung = system: NCI-H460 lung
786-0 renal = system: 786-0 renal
NCI-H226 lung = system: NCI-H226 lung
HCT-15 colon = system: HCT-15 colon
OVCAR-3 ovarian = system: OVCAR-3 ovarian
MDA-MB-435 = system: MDA-MB-435
DU-145 prostate = system: DU-145 prostate
HCT-116 colon = system: HCT-116 colon
SK-OV-3 ovarian = system: SK-OV-3 ovarian
SK-MEL-2 melanoma = system: SK-MEL-2 melanoma
OVCAR-5 ovarian = system: OVCAR-5 ovarian
CCRF-CEM leukemia = system: CCRF-CEM leukemia
RXF 393 renal = system: RXF 393 renal
NCI-H522 lung = system: NCI-H522 lung
A549 NSCLC = system: A549 NSCLC
SNB-75 CNS = system: SNB-75 CNS
HCC-2998 colon = system: HCC-2998 colon
SK-MEL-5 melanoma = system: SK-MEL-5 melanoma
IGROV1 ovarian = system: IGROV1 ovarian
SN12C renal = system: SN12C renal
SF-295 CNS = system: SF-295 CNS
OVCAR-8 ovarian = system: OVCAR-8 ovarian
NCI/ADR-RES ovarian = system: NCI/ADR-RES ovarian
SR leukemia = system: SR leukemia
BT-549 breast = system: BT-549 breast
UO-31 renal = system: UO-31 renal
RPMI-8226 leukemia = system: RPMI-8226 leukemia
PC-3 prostate = system: PC-3 prostate
UACC-62 melanoma = system: UACC-62 melanoma
MALME-3M melanoma = system: MALME-3M melanoma
HOP-62 NSCLC = system: HOP-62 NSCLC
SW-620 colon = system: SW-620 colon
HT29 colon = system: HT29 colon
KM12 colon = system: KM12 colon

## ClC1=C(Cl)C(Cl)(C2(Cl)C(Cl)=C(Cl)C(Cl)=C2Cl)C(Cl)=C1Cl
SNB-19 CNS
  GI50: 1.79 µM
  TGI: 3.33 µM
NCI-H23 lung
  GI50: 0.865 µM
  TGI: 3.1 µM
MOLT-4 leukemia
  GI50: 0.242 µM
  TGI: 2.31 µM
CAKI-1 renal
  GI50: 0.265 µM
  TGI: 0.832 µM
SK-MEL-28 melanoma
  GI50: 0.279 µM
  TGI: 0.847 µM
UACC-257 melanoma
  GI50: 0.543 µM
  TGI: 1.84 µM
HL-60(TB) leukemia
  GI50: 0.206 µM
  TGI: 0.549 µM
ACHN renal
  GI50: 0.165 µM
  TGI: 0.312 µM
TK-10 renal
  GI50: 0.201 µM
  TGI: 0.462 µM
T-47D breast
  GI50: 0.184 µM
  TGI: 0.539 µM
SF-268 CNS
  GI50: 1.28 µM
  TGI: 4.05 µM
LOX IMVI melanoma
  GI50: 0.206 µM
  TGI: 0.487 µM
EKVX NSCLC
  GI50: 1.52 µM
  TGI: 3.88 µM
MDA-MB-231 breast
  GI50: 0.383 µM
  TGI: 1.42 µM
SF-539 CNS
  GI50: 1.74 µM
  TGI: 3.66 µM
MCF7 breast
  GI50: 0.241 µM
  TGI: 0.921 µM
HS 578T breast
  GI50: 2.22 µM
  TGI: 6.43 µM
M14 melanoma
  GI50: 0.252 µM
  TGI: 0.716 µM
U251 CNS
  GI50: 1.51 µM
  TGI: 6.91 µM
A498 renal
  GI50: 1.71 µM
  TGI: 3.19 µM
COLO 205 colon
  GI50: 0.202 µM
  TGI: 0.462 µM
K-562 leukemia
  GI50: 0.226 µM
  TGI: > 100 µM
OVCAR-4 ovarian
  GI50: 0.2 µM
  TGI: 0.509 µM
HOP-92 NSCLC
  GI50: 0.175 µM
  TGI: 0.437 µM
NCI-H460 lung
  GI50: 1.89 µM
  TGI: 3.8 µM
786-0 renal
  GI50: 0.242 µM
  TGI: 0.746 µM
NCI-H226 lung
  GI50: 0.296 µM
  TGI: 2.74 µM
HCT-15 colon
  GI50: 0.214 µM
  TGI: 0.552 µM
OVCAR-3 ovarian
  GI50: 0.199 µM
  TGI: 0.417 µM
MDA-MB-435
  GI50: 0.67 µM
  TGI: 2.13 µM
DU-145 prostate
  GI50: 0.633 µM
  TGI: 1.99 µM
HCT-116 colon
  GI50: 0.189 µM
  TGI: 0.439 µM
SK-OV-3 ovarian
  GI50: 2.26 µM
  TGI: 4.54 µM
SK-MEL-2 melanoma
  GI50: 1.29 µM
  TGI: 3.14 µM
OVCAR-5 ovarian
  GI50: 1.22 µM
  TGI: 2.76 µM
CCRF-CEM leukemia
  GI50: 0.166 µM
  TGI: 0.496 µM
RXF 393 renal
  GI50: 0.186 µM
  TGI: 0.396 µM
NCI-H522 lung
  GI50: 0.16 µM
  TGI: 0.341 µM
A549 NSCLC
  GI50: 1.87 µM
  TGI: 4.16 µM
SNB-75 CNS
  GI50: 1.63 µM
  TGI: 4.46 µM
HCC-2998 colon
  GI50: 2.13 µM
  TGI: 4 µM
SK-MEL-5 melanoma
  GI50: 1.27 µM
  TGI: 2.73 µM
IGROV1 ovarian
  GI50: 1.48 µM
  TGI: 3.16 µM
SN12C renal
  GI50: 1.32 µM
  TGI: 3.8 µM
SF-295 CNS
  GI50: 2.05 µM
  TGI: 4.14 µM
OVCAR-8 ovarian
  GI50: 0.365 µM
  TGI: 3.79 µM
NCI/ADR-RES ovarian
  GI50: 0.976 µM
  TGI: 5.61 µM
SR leukemia
  GI50: 0.272 µM
  TGI: 1.52 µM
BT-549 breast
  GI50: 1.68 µM
  TGI: 3.67 µM
UO-31 renal
  GI50: 0.17 µM
  TGI: 0.445 µM
RPMI-8226 leukemia
  GI50: 0.252 µM
  TGI: 0.696 µM
PC-3 prostate
  GI50: 0.975 µM
  TGI: 2.95 µM
UACC-62 melanoma
  GI50: 0.43 µM
  TGI: 1.61 µM
MALME-3M melanoma
  GI50: 0.188 µM
  TGI: 0.446 µM
HOP-62 NSCLC
  GI50: 2.21 µM
  TGI: 4.56 µM
SW-620 colon
  GI50: 0.19 µM
  TGI: 0.391 µM
HT29 colon
  GI50: 0.242 µM
  TGI: 0.617 µM
KM12 colon
  GI50: 2.04 µM
  TGI: 4.32 µM

## C/C(=C\C(=O)O[C@H]1[C@@H]2[C@H](C)CC[C@H]2[C@]2(C)O[C@@]1(C1CCCCC1)C[C@H]2OC(=O)CO)c1ccccc1
SNB-19 CNS
  GI50: 7.41 µM
  TGI: 13.1 µM
NCI-H23 lung
  GI50: 6.87 µM
  TGI: 13.9 µM
MOLT-4 leukemia
  GI50: 6.42 µM
  TGI: 13.6 µM
CAKI-1 renal
  GI50: 0.0235 µM
  TGI: 5.01 µM
SK-MEL-28 melanoma
  GI50: 6.78 µM
  TGI: 12.6 µM
UACC-257 melanoma
  GI50: 6.96 µM
  TGI: 13.3 µM
HL-60(TB) leukemia
  GI50: 5.04 µM
  TGI: 13.1 µM
ACHN renal
  GI50: 0.0147 µM
  TGI: 6.02 µM
TK-10 renal
  GI50: 7.6 µM
  TGI: 14.7 µM
T-47D breast
  GI50: 5.44 µM
  TGI: 12.1 µM
SF-268 CNS
  GI50: 0.2 µM
  TGI: 8.47 µM
LOX IMVI melanoma
  GI50: 6.97 µM
  TGI: 12.9 µM
EKVX NSCLC
  GI50: 6.46 µM
  TGI: 12.5 µM
MDA-MB-231 breast
  GI50: 6.67 µM
  TGI: 13 µM
SF-539 CNS
  GI50: 7.1 µM
  TGI: 13.2 µM
MCF7 breast
  GI50: 5.4 µM
  TGI: 11.9 µM
HS 578T breast
  GI50: 0.0101 µM
  TGI: 0.0295 µM
M14 melanoma
  GI50: 7.95 µM
  TGI: 18.1 µM
U251 CNS
  GI50: 6.02 µM
  TGI: 11.5 µM
A498 renal
  GI50: 0.0164 µM
  TGI: 0.114 µM
COLO 205 colon
  GI50: 7.61 µM
  TGI: 15 µM
K-562 leukemia
  GI50: 7.82 µM
  TGI: 17.6 µM
OVCAR-4 ovarian
  GI50: 7.25 µM
  TGI: 13.8 µM
HOP-92 NSCLC
  GI50: 2.07 µM
  TGI: 8.09 µM
NCI-H460 lung
  GI50: 6.86 µM
  TGI: 14.1 µM
786-0 renal
  GI50: 5.11 µM
  TGI: 10.6 µM
NCI-H226 lung
  GI50: 5.98 µM
  TGI: 12.3 µM
HCT-15 colon
  GI50: 6.81 µM
  TGI: 13 µM
OVCAR-3 ovarian
  GI50: 7.69 µM
  TGI: 13.9 µM
MDA-MB-435
  GI50: 6.84 µM
  TGI: 12.9 µM
DU-145 prostate
  GI50: 7.01 µM
  TGI: 12.6 µM
HCT-116 colon
  GI50: 6.18 µM
  TGI: 12 µM
SK-OV-3 ovarian
  GI50: 7.15 µM
  TGI: 13.2 µM
SK-MEL-2 melanoma
  GI50: 7.05 µM
  TGI: 13.4 µM
OVCAR-5 ovarian
  GI50: 7 µM
  TGI: 12.9 µM
CCRF-CEM leukemia
  GI50: 7 µM
  TGI: 15.3 µM
RXF 393 renal
  GI50: 0.0798 µM
  TGI: 7.12 µM
NCI-H522 lung
  GI50: 6.55 µM
  TGI: 13.1 µM
A549 NSCLC
  GI50: 6.61 µM
  TGI: 12.4 µM
SNB-75 CNS
  GI50: 0.331 µM
  TGI: 7.21 µM
HCC-2998 colon
  GI50: 7.32 µM
  TGI: 14.4 µM
SK-MEL-5 melanoma
  GI50: 6.45 µM
  TGI: 11.9 µM
IGROV1 ovarian
  GI50: 7.58 µM
  TGI: 14.7 µM
SN12C renal
  GI50: 0.0228 µM
  TGI: 7.18 µM
SF-295 CNS
  GI50: 6.08 µM
  TGI: 11.7 µM
OVCAR-8 ovarian
  GI50: 4.27 µM
  TGI: 10.7 µM
NCI/ADR-RES ovarian
  GI50: 0.348 µM
  TGI: 7.49 µM
SR leukemia
  GI50: 6.87 µM
  TGI: 15 µM
BT-549 breast
  GI50: 0.12 µM
  TGI: 4.21 µM
RPMI-8226 leukemia
  GI50: 7.2 µM
  TGI: 16.6 µM
PC-3 prostate
  GI50: 5.05 µM
  TGI: 10.9 µM
UACC-62 melanoma
  GI50: 6.62 µM
  TGI: 12.4 µM
MALME-3M melanoma
  GI50: 7.25 µM
  TGI: 13.5 µM
HOP-62 NSCLC
  GI50: 7 µM
  TGI: 13 µM
SW-620 colon
  GI50: 6.78 µM
  TGI: 13.3 µM
HT29 colon
  GI50: 6.47 µM
  TGI: 13 µM
KM12 colon
  GI50: 6.44 µM
  TGI: 13 µM
